The values below come from patent publication US11242351B2, “Tricyclic inhibitors of the BCL6 BTB domain protein-protein interaction and uses thereof” (priority 2017, dated 2022).

Where two headings read alike, the source gives them in different places.

For assay [1], the system named is BCL6 reporter construct in SuDHL4-3×BCL6-TK-Luc cells. Kind of assay: Cell-based luciferase assay (BCL6 reporter). The note with it: 48 h, read-out: Luc IC50. A digest of the protocol:
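SuDHL4 cells stably carrying a 3×BCL6-site TK-promoter firefly luciferase reporter, 15,000 cells/well, dosed over 10 concentrations (top 10 μM) and cultured two days at 37° C, 5% CO2. Luciferase luminescence read after room-temperature equilibration with neolite reagent.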

For a further assay, the system named is Karpas422 cells. Kind of assay: Tumor cell growth inhibition assay. It is filed as cell-based. To be noted: Homo sapiens, KARPAS-422, 144 h, read-out: GI Karpas EC50. A digest of the protocol:
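Karpas422 cells were dosed over a 10-point concentration range (top 5 μM) and grown 6 days at 37 °C, 5% CO2, in Alpha-MEM with 10% FBS. Viability was read as ATPlite luminescence.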

Assay [2] has as its target BCL6 BTB domain (biotin-thrombin-BCL6 amino acids 1-129) (Homo sapiens (Human), UniProt P41182). Kind of assay: Surface Plasmon Resonance (SPR) assay. The class given is binding. The note with it: Biacore T200, single cycle kinetic analysis. How it is done: Surface Plasmon Resonance (SPR) Assay
SPR studies were performed using a Biacore™ T200 instrument (GE Health Sciences Inc.). […] The Biacore flow rate was set at 100 μl/min. […] Curve fitting and KD calculations were performed with the Biacore T200 Evaluation software (GE Health Sciences Inc).
(In general: In SPR one partner is held on a chip, and binding of the other changes the refractive index at the surface.)

Setting [3] is: SuDHL4-3×BCL6-TK-Luc cells, two days.
The mark [4] stands for this setting: Karpas422 cells, six days, ATPlite.

For the molecule `CCOCCN1CCN(c2cc(NC(=O)Cn3cc(-c4cc(C(N)=O)c(O)c(OC)c4OC)c4c(=O)n5c(nc43)CCC5)c(Cl)c(F)n2)[C@@H](C)C1` [I-71, (S)-5-(1-(2-((3-chloro-6-(4-(2-ethoxyethyl)-2-methylpiperazin-1-yl)-2-fluoropyridin-4-yl)amino)-2-oxo-ethyl)-4-oxo-4,6,7,8-tetrahydro-1H-dipyrrolo [1,2-a:2′,3′-d]pyrimidin-3-yl)-2-hydroxy-3,4-dimethoxybenzamide], in assay [1] (setting [3]), the half-maximal inhibitory concentration (IC50) was found to be 1.64 µM. Also, in the assay with Karpas422 cells (setting [4]), the EC50 amounted to 1.37 µM. This molecule also came in with a dissociation constant (Kd) in assay [2] of 0.181 µM.
For the molecule `COc1c(-c2cn(CC(=O)Nc3cc(N4CCN(C5COC5)C[C@@H]4C)nc(F)c3Cl)c3nc4n(c(=O)c23)CCC4)cc(C(N)=O)c(O)c1OC` [I-72, (S)-5-(1-(2-((3-chloro-2-fluoro-6-(2-methyl-4-(oxetan-3-yl)pipera-zin-1-yl)pyridin-4-yl)amino)-2-oxoethyl)-4-oxo-4,6,7,8-tetra-hydro-1H-dipyrrolo [1,2-a:2′,3′-d]pyrimi-din-3-yl)-2-hydroxy-3,4-dimethoxy-benzamide], the IC50 in assay [1] stood at 1.56 µM. Further, the EC50 with Karpas422 cells worked out at 0.429 µM. In assay [2], this molecule gave a dissociation constant (Kd) of 0.0851 µM.
The matching figures for `C[C@H]1CN(C)C[C@H](C)N1c1cc(NC(=O)Cn2cc(-c3cc(C(N)=O)c(O)c(F)c3F)c3c(=O)n4c(nc32)CCC4)c(Cl)c(F)n1` [I-73, 5-(1-(2-((3-chloro-2-fluoro-6-((2S,6S)-2,4,6-trimethyl-piperazin-1-yl)pyridin-4-yl)amino)-2-oxo-ethyl)-4-oxo-4,6,7,8-tetrahydro-1H-dipyrrolo [1,2-a:2′,3′-d]pyrimidin-3-yl)-3,4-difluoro-2-hydroxybenzamide]: 1.05 µM, 0.648 µM and 0.0586 µM.
On to `NC(=O)c1cc(-c2cn(CC(=O)Nc3cc(N4CCCC4)nc(F)c3Cl)c3nc4n(c(=O)c23)CCC4)cc(Cl)c1O` [I-74, 3-chloro-5-(1-(2-((3-chloro-2-fluoro-6-(pyrrolidin-1-yl)pyridin-4-yl)amino)-2-oxo-ethyl)-4-oxo-4,6,7,8-tetrahydro-1H-dipyrrolo [1,2-a:2′,3′-d]pyrimidin-3-yl)-2-hydroxy-benzamide], for which, in assay [1] (setting [3]), the half-maximal inhibitory concentration (IC50) turned out to be 0.148 µM. In addition, the EC50 in the assay on Karpas422 cells (setting [4]) turned out to be 0.21 µM. The Kd in assay [2] was 0.0148 µM.
The like results for `COCCN1CCN(c2cc(NC(=O)Cn3cc(-c4cc(Cl)c(O)c(C(N)=O)c4)c4c(=O)n5c(nc43)CCC5)c(Cl)c(F)n2)[C@@H](C)C1` [I-75, (S)-3-chloro-5-(1-(2-((3-chloro-2-fluoro-6-(4-(2-methoxyethyl)-2-methylpiperazin-1-yl)pyridin-4-yl)amino)-2-oxoethyl)-4-oxo-4,6,7,8-tetra-hydro-1H-dipyrrolo [1,2-a:2′,3′-d]pyrimi-din-3-yl)-2-hydroxy-benzamide] were, in that order, 0.0367 µM, 0.0489 µM and 0.0037 µM.
The matching figures for `NC(=O)c1cc(-c2cn(CC(=O)Nc3cc(N4CCCC4)nc(F)c3Cl)c3nc4n(c(=O)c23)CCC4)cc(F)c1O` [I-76, 5-(1-(2-((3-chloro-2-fluoro-6-(pyrrolidin-1-yl)pyridin-4-yl)amino)-2-oxoethyl)-4-oxo-4,6,7,8-tetrahydro-1H-dipyrrolo[1,2-a:2′,3′-d]pyrimidin-3-yl)-3-fluoro-2-hydroxy-benzamide]: 0.0851 µM, 0.0928 µM and 0.00302 µM.
`COCCN1CCN(c2cc(NC(=O)Cn3cc(-c4cc(F)c(O)c(C(N)=O)c4)c4c(=O)n5c(nc43)CCC5)c(Cl)c(F)n2)[C@@H](C)C1` [I-77, (S)-5-(1-(2-((3-chloro-2-fluoro-6-(4-(2-methoxyethyl)-2-methylpiperazin-1-yl)pyridin-4-yl)amino)-2-oxoethyl)-4-oxo-4,6,7,8-tetrahydro-1H-dipyrrolo[1,2-a:2′,3′-d]pyrimidin-3-yl)-3-fluoro-2-hydroxy-benzamide]: in assay [1] (setting [3]), the half-inhibitory concentration (IC50) amounted to 0.0274 µM. In addition, the concentration giving a half-maximal response (EC50) in the assay with Karpas422 cells (setting [4]) is 0.0207 µM. Besides, the dissociation constant Kd in assay [2] was 0.00142 µM.
The like results for `CC1Cc2nc3c(c(-c4cc(F)c(O)c(C(N)=O)c4)cn3CC(=O)Nc3cc(N4CCN(C)C[C@@H]4C)nc(F)c3Cl)c(=O)n2C1` (stereo partly drawn) [I-78, 5-(1-(2-((3-chloro-6-((S)-2,4-dimethyl-piperazin-1-yl)-2-fluoropyridin-4-yl)amino)-2-oxoethyl)-7-methyl-4-oxo-4,6,7,8-tetrahydro-1H-dipyrrolo[1,2-a:2′,3′-d]pyrimidin-3-yl)-3-fluoro-2-hydroxy-benzamide] were, in that order, 0.0307 µM, 0.021 µM and 0.00203 µM.
The matching figures for `C[C@H]1CN(C)CCN1c1cc(NC(=O)Cn2cc(-c3cc(F)c(O)c(C(N)=O)c3)c3c(=O)n4c(nc32)CC(C)(C)C4)c(Cl)c(F)n1` [I-79, (S)-5-(1-(2-((3-chloro-6-(2,4-dimethyl-piperazin-1-yl)-2-fluoropyridin-4-yl)amino)-2-oxoethyl)-7,7-dimethyl-4-oxo-4,6,7,8-tetrahydro-1H-dipyrrolo[1,2-a:2′,3′-d]pyrimidin-3-yl)-3-fluoro-2-hydroxy-benzamide]: 0.0352 µM, 0.0398 µM and 0.00279 µM.
The matching figures for `CN(C)c1cc(NC(=O)Cn2cc(-c3cc(F)c(O)c(C(N)=O)c3)c3c(=O)n4c(nc32)CCC4)c(Cl)c(F)n1` [I-80, 5-(1-(2-((3-chloro-6-(dimethylamino)-2-fluoropyridin-4-yl)amino)-2-oxoethyl)-4-oxo-4,6,7,8-tetrahydro-1H-dipyrrolo[1,2-a:2′,3′-d]pyrimidin-3-yl)-3-fluoro-2-hydroxy-benzamide]: 0.0872 µM, 0.0701 µM and 0.00383 µM.
With `CCN1CCN(c2cc(NC(=O)Cn3cc(-c4cc(F)c(O)c(C(N)=O)c4)c4c(=O)n5c(nc43)CCC5)c(Cl)c(F)n2)[C@@H](C)C1` [I-81, (S)-5-(1-(2-((3-chloro-6-(4-ethyl-2-methyl-piperazin-1-yl)-2-fluoropyridin-4-yl)amino)-2-oxoethyl)-4-oxo-4,6,7,8-tetrahydro-1H-dipyrrolo[1,2-a:2′,3′-d]pyrimidin-3-yl)-3-fluoro-2-hydroxy-benzamide], the IC50 in assay [1] (setting [3]) worked out at 0.0283 µM. In addition, the EC50 in the assay on Karpas422 cells (setting [4]) was determined as 0.0313 µM. In assay [2], this molecule yielded an equilibrium dissociation constant (Kd) of 0.00155 µM.
`CCN1CCN(c2cc(NC(=O)Cn3cc(-c4cc(Cl)c(O)c(C(N)=O)c4)c4c(=O)n5c(nc43)CCC5)c(Cl)c(F)n2)[C@@H](C)C1` [I-82, (S)-3-chloro-5-(1-(2-((3-chloro-6-(4-ethyl-2-methylpiperazin-1-yl)-2-fluoropyridin-4-yl)amino)-2-oxoethyl)-4-oxo-4,6,7,8-tetra-hydro-1H-dipyrrolo [1,2-a:2′,3′-d]pyrimi-din-3-yl)-2-hydroxy-benzamide]: the IC50 in assay [1] (setting [3]) worked out at 0.0631 µM. Also, the EC50 in the assay on Karpas422 cells (setting [4]) was 0.0278 µM. Besides, in assay [2], the Kd came to 0.00413 µM.
The like results for `C[C@H]1CN(C)C[C@H](C)N1c1cc(NC(=O)Cn2cc(-c3cc(F)c(O)c(C(N)=O)c3)c3c(=O)n4c(nc32)CCC4)c(Cl)c(F)n1` [I-83, 5-(1-(2-((3-chloro-2-fluoro-6-((2S,6S)-2,4,6-trimethylpiperazin-1-yl)pyridin-4-yl)amino)-2-oxoethyl)-4-oxo-4,6,7,8-tetrahydro-1H-dipyrrolo[1,2-a:2′,3′-d]pyrimidin-3-yl)-3-fluoro-2-hydroxy-benzamide] were, in that order, 0.465 µM, 0.109 µM and 0.0112 µM.
In the case of `C[C@H]1COCCN1c1cc(NC(=O)Cn2cc(-c3cc(C(N)=O)c(O)c4c3OCO4)c3c(=O)n4c(nc32)CCC4)c(Cl)cn1` [I-85, (S)-7-(1-(2-((5-chloro-2-(3-methylmorpholino)pyridin-4-yl)amino)-2-oxoethyl)-4-oxo-4,6,7,8-tetrahydro-1H-dipyrrolo[1,2-a:2′,3′-d]pyrimidin-3-yl)-4-hydroxybenzo[d][1,3] dioxole-5-carboxamide], the half-maximal inhibitory concentration (IC50) in assay [1] (setting [3]) is 0.0154 µM. The half-maximal effective concentration (EC50) with Karpas422 cells (setting [4]) came to 0.0296 µM. In assay [2], binding was put at a Kd of 0.00161 µM.
With `CCN1CCN(c2cc(NC(=O)Cn3cc(-c4cc(C(N)=O)c(O)c5c4OCO5)c4c(=O)n5c(nc43)CCC5)c(Cl)c(F)n2)[C@@H](C)C1` [I-86, (S)-7-(1-(2-((3-chloro-6-(4-ethyl-2-methyl-piperazin-1-yl)-2-fluoropyridin-4-yl)amino)-2-oxoethyl)-4-oxo-4,6,7,8-tetrahydro-1H-dipyrrolo[1,2-a:2′,3′-d]pyrimidin-3-yl)-4-hydroxybenzo[d][1,3] dioxole-5-carboxamide], in assay [1], the IC50 worked out at 0.00785 µM. The EC50 with Karpas422 cells came out at 0.00688 µM. Moreover, in assay [2], the dissociation constant Kd was found to be 0.00081 µM.
Consider `CC1Cc2nc3c(c(-c4cc(C(N)=O)c(O)c5c4OCO5)cn3CC(=O)Nc3cc(N4CCN(C)C[C@@H]4C)nc(F)c3Cl)c(=O)n2C1` (stereo partly drawn) [I-87, 7-(1-(2-((3-chloro-6-((S)-2,4-dimethyl-piperazin-1-yl)-2-fluoropyridin-4-yl)amino)-2-oxoethyl)-7-methyl-4-oxo-4,6,7,8-tetrahydro-1H-dipyrrolo[1,2-a:2′,3′-d]pyrimidin-3-yl)-4-hydroxybenzo[d][1,3] dioxole-5-carboxamide], for which, in assay [1] (setting [3]), the IC50 was 0.0106 µM. For the same molecule, the half-maximal effective concentration (EC50) in the assay on Karpas422 cells (setting [4]) is 0.00904 µM. Moreover, in assay [2], binding was characterised by a dissociation constant (Kd) of 0.00077 µM.

A word on the IC50: it is the concentration that inhibits the measured activity by half. Usually EC50 stands for the concentration at which the effect is half-maximal. A word on the Kd: it is a measure of binding affinity in units of concentration. The low end stands for a tighter complex, the high end for a looser complex.
